Laboratory results from patent publication US9580330B2, “Anhydrous, amorphous and porous magnesium carbonates and methods of production thereof” (DISRUPTIVE MATERIALS AB, priority 2012, dated 2017).

Key:
[1] = Drug release measurement, USP-2 dissolution bath; format: physicochemical; conditions: phosphate buffer pH 6.8, 37° C., 50 rpm, 17.5 mg ibuprofen in 500 mL
Procedure: Drug Release Measurement: The release of ibuprofen was carried out in a USP-2 dissolution bath (Sotax AT7 Smart, Sotax AG, Switzerland) equipped with 1000 mL vessels (37° C., 50 rpm). Samples with a total drug content of 17.5 mg ibuprofen were placed in vessels containing 500 mL phosphate buffer (pH=6.8). […] Aliquots of 3 mL were withdrawn from each vessel at regular intervals for 125 min and the drug concentration in the liquid samples was analysed using UV/vis absorbance spectroscopy (1650PC, Shimadzu Corporation, Kyoto, Japan).

[2] = Thermal gravimetric analysis (TGA) of Example 28 samples; format: physicochemical; conditions: air flow, 3 K min^−1
Procedure: Thermal gravimetric analysis (TGA) was carried out on a Mettler Toledo, model TGA/SDTA851e, under an air flow in an inert alumina cup. The samples were heated from room temperature to 600° C. with a heating rate of 3 K min^−1.

Compound: CC(C)Cc1ccc(C(C)C(=O)O)cc1 (centres unmarked) [free ibuprofen, ibuprofen]
- time until about 50% of the ibuprofen is dissolved [1]: about 30 minutes
- decomposition temperature of ibuprofen [2]: about 200 °C
